Data on 6 compounds can be found in article PMC4876372 (Scientific Reports, 2016).

Where two headings read alike, the source gives them in different places.

For data set [1], the system named is Bcl-2 phosphorylation in HeLa cells. Description: Detection of phosphorylated Bcl-2 (western blot). It counts as cell-based, human. The note with it: 24 h, at the effective concentrations. The procedure:
Western blot analysis for detection of phosphorylated Bcl-2 was performed as described previously with several modifications. Briefly, HeLa cells were treated with test compounds for 24 h, then harvested and lysed by sonication in a radioimmunoprecipitation assay buffer (RIPA) buffer containing 25 mM 4-(2-hydroxyethyl)-1-piperazineethanesulfonic acid (HEPES; pH 7.8), 0.5 M NaCl, 5 mM ethylenediaminetetraacetic acid (EDTA), 1.5% Triton-X-100, 1.0% sodium deoxycholate, and 0.1% sodium dodecyl sulfate (SDS), supplemented with a protease inhibitor cocktail (Roche). Samples were subjected to SDS-PAGE and transferred to a PVDF membrane. The membrane was incubated with a primary antibody against Bcl-2 (1:500, #M0887; DAKO) and a horseradish peroxidase-labeled secondary antibody (1:2000, 170-6516; Bio-Rad) in sequence. Then, they were visualized with Fusion Solo S using the SuperSignal West Pico Chemiluminescence Substrate. Phosphorylated Bcl-2 was detected on the upper side of unphosphorylated Bcl-2 by the mobility shift. As a loading control, α-tubulin was detected in the same samples by using a primary antibody against α-tubulin (1:2000, T9026; Sigma-Aldrich).
(In general: A western blot detects proteins with antibodies after separation by electrophoresis.)

In data set [2] the test system is other members of the Nudix protein family, nucleoside triphosphate pyrophosphatases. The arrangement: method as in PMID 24695224. Conditions: cited from earlier work.
The target in another data set is T1, porcine tubulin (Sus scrofa, UniProt P02550+P02554).
T1 construct: purchased Cytoskeleton
The experiment in a line: In vitro tubulin polymerization assay. It counts as biochemical. Conditions: dose-dependent. The procedure:
In vitro tubulin polymerization assay was performed using a tubulin polymerization assay kit (Cytoskeleton) according to the manufacturer’s instructions. Briefly, lyophilized porcine tubulin was solubilized to a final concentration of 2 mg/mL in reaction buffer containing 80 mM piperazine-N,N′-bis(2-ethanesulfonic acid) (PIPES; pH 6.9), 2 mM MgCl2, 0.5 mM ethylene glycol tetraacetic acid (EGTA), 1 mM guanosine-5′-triphosphate (GTP), 10 μM fluorescent reporter, and 20% glycerol, and kept at 4 °C. Compounds (100 × DMSO stock solutions) were added to prewarmed half-area 96-well black plates. Cold tubulin solution was added to the wells. The plate contents were mixed by shaking, and fluorescence (Ex 350 nm, Em 435 nm) was read every minute for 1 h using a fluorescence microplate reader (Molecular Devices).

Data set [3] relates to HeLa cells. The experiment in a line: Cell cycle analysis (propidium iodide flow cytometry). It counts as cell-based, human. The note with it: 24 h. How it is done: The HeLa cells were seeded in 12-well plates and treated with test compounds for the indicated time. Cells were harvested, washed with PBS, and incubated in propidium iodide (PI) solution containing 50 µg/mL propidium iodide, 0.1% sodium citrate, 0.2% Nonidet P-40, and 0.25 µg/mL RNase A (Nacalai Tesque) for 30 mi n in the dark.
Cellular DNA content was analyzed by fluorescence-activated cell sorting using a Cytomics FC500 (Beckman Coulter). […]
(In flow cytometry, cells or beads pass a laser one at a time.)

Data set [4] deals with intracellular microtubule networks in HeLa cells. The experiment in a line: alpha-tubulin immunofluorescence (interphase microtubules). It counts as cell-based, human. Conditions: 6 h, at cytotoxic concentrations. The procedure:
For α-tubulin, immunofluorescence was performed as described previously with several modifications2. Briefly, test compound–treated HeLa cells were fixed in 3.7% formalin for 1 min and methanol at -20 °C for 5 min sequentially, and permeabilized in 0.5% Triton X-100 in PBS for 5 min. After blocking with 0.5% BSA in PBS at room temperature for 30 min, cells were incubated sequentially with a primary antibody against α-tubulin (1:200, T9026; Sigma-Aldrich) in the blocking solution at 37 °C for 1 h, and with Alexa Fluor 488-conjugated secondary antibody (1:400, Life Technologies) at 37 °C for 40 min. After a quick rinse in PBS, DNA was counterstained with 0.5 µg/mL Hoechst 33342 in PBS at room temperature for 10 min. Images were analyzed using a fluorescence microscope (Delta Vision). […]
2 Futamura, Y. et al. Morphobase, an encyclopedic cell morphology database, and […]

The test system of data set [5] is patient-derived malignant melanoma cells. The arrangement: method as in PMID 24695224. Conditions: cited from earlier work.
The test system of data set [6] is 87 enzymes, GPCRs, kinases, ion channels, and transporters. The arrangement: method as in PMID 24695224. Conditions: at 10 μM; with few exceptions; cited from earlier work.
Data set [7] can be described thus: Cell death assay (WST-8) in HeLa cells. It counts as cell-based, human. The note with it: human, HeLa cells (cervical cancer); 72 h, WST-8; read-out: cytotoxicity IC50 against HeLa cells. The procedure: (§1) Human cancer cell lines HeLa (cervical cancer), MIA PaCa-2 (pancreatic cancer), A431 (epidermoid carcinoma), and human embryonic kidney derived cell line HEK293T were cultured in Dulbecco’s Modified Eagle’s Medium (DMEM; Invitrogen) containing 10% fetal bovine serum (FBS), penicillin G (50 units/mL) and streptomycin (50 µg/mL). Human cancer cell lines Panc-1 (pancreatic cancer) and Jurkat (T cell lymphoma) were cultured in RPMI (Gibco) containing 10% FBS, penicillin G (50 units/mL) and streptomycin (50 µg/mL). Human osteosarcoma cell line MG-63, mouse embryonic fibroblast NIH3T3 cells and its transformant NIH3T3/KRAS cells1 were cultured in DMEM (Sigma-Aldrich) containing 10% calf serum, glutamine (0.3 g/L), penicillin G (50 units/mL), and streptomycin (50 µg/mL). All cell lines were incubated at 37 °C in a humidified atmosphere containing 5% CO2.
(§2) The cells were seeded in 96-well plates, cultured overnight, and treated with test compounds for the indicated time. Subsequently, cell viability was measured by the WST-8 assay, using Cell Count Reagent SF (Nacalai Tesque) according to the manufacturer ’s instructions, with the measurement of absorbance set at 450 nm on the ARVO SX 1420 Multilabel Counter (Wallac). […]
In general terms: Tetrazolium assays rely on reduction of a dye to a coloured formazan, in cell work by metabolically active cells.

The target of data set [8] is T2, His-tagged human recombinant MTH1 protein (Homo sapiens, UniProt P36639).
T2 construct: His; purchased ProSpec
The experiment in a line: MTH1 enzyme assay (PPiLight pyrophosphate detection). Conditions: MTH1 2 nM. It counts as biochemical. The procedure: An MTH1 enzyme assay was performed as described previously with minor modifications. Briefly, test compounds were dissolved in an assay buffer [100 mM Tris-acetate, 40 mM NaCl, 10 mM Mg(OAc)2, 0.005% Tween-20, and 2 mM dithiothreitol (DTT), pH 7.5] containing His-tagged human recombinant MTH1 protein (2 nM; ProSpec). […] Relative MTH1 activity was measured by monitoring the pyrophosphate (PPi) generated through MTH1-catalyzed nucleotide triphosphate hydrolysis. The luciferase-mediated luminescence signal was recorded for 30 min using a luminometer (Molecular Devices).

For data set [9], the system named is nuclear 53BP1 foci in HeLa cells. Description: 53BP1 foci immunofluorescence (DNA damage). It counts as cell-based, human. Conditions: 24 h, only at the higher concentrations (100-300 μM). How it is done:
For 53BP1, test compound–treated HeLa cells were fixed in 3% formalin in PBS containing 0.1% Triton X-100 for 15 min and permeabilized in 0.5% Triton X-100 for 5 min. After blocking with 10% FBS and 0.1% Triton X-100 in PBS for 1 h, cells were incubated sequentially with a primary antibody against 53BP1 (1:600, sc-22760; Santa Cruz Biotechnology) in blocking solution at 37 °C for 1 h and with Alexa Fluor 568-conjugated secondary antibody (1:400, Life Technologies) under the same condition.
After a quick rinse in PBS, DNA was counterstained with 0.5 µg/mL Hoechst 33342 (Sigma-Aldrich) in PBS at room temperature for 10 min. Images were analyzed on a fluorescence microscope (Delta Vision). […]

In data set [10] the test system is HeLa cells. The experiment in a line: Cell death assay (WST-8) in HeLa cells. It counts as cell-based, human. How it is done:
as §1, §2

Data set [11] deals with T3, His-tagged human recombinant DCTPP1 protein (Homo sapiens, UniProt Q9H773).
T3 construct: His; purchased ATGen
T3 sequence (Q9H773 1-170): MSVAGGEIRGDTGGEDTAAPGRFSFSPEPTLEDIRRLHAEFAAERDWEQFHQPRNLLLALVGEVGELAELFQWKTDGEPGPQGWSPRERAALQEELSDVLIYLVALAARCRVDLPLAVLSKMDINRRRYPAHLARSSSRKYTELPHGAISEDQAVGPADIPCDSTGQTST
The experiment in a line: DCTPP1 enzyme assay. Conditions: at 100 μM. It counts as biochemical. How it is done:
Likewise, the enzymatic activities of ITPA and DCTPP1 were measured using a PPiLight Inorganic Pyrophosphate Assay kit. For the ITPA enzyme assay, we used ITPA assay buffer (100 mM Tris-acetate, 50 mM Mg(OAc)2, 0.005% Tween-20, and 2 mM DTT, pH 7.5), His-tagged human recombinant ITPA protein (5 nM; ProSpec), and ITP (25 μM). For the DCTPP1 enzyme assay, we used DCTPP1 assay buffer (100 mM Tris-acetate, 100 mM NaCl, 10 mM Mg(OAc)2, 0.005% Tween-20, and 2 mM DTT, pH 7.5), His-tagged human recombinant DCTPP1 protein (50 nM; ATGen), and deoxycytidine triphosphate (dCTP; 50 μM).
To exclude false positive compounds that inhibit PPi detection, the effects of test compounds on 10 μM Na4P2O7-induced luciferase activity were examined.

The subject of data set [12] is 8-oxo-dG levels in DNA of HeLa cells. The experiment in a line: 8-oxo-dG immunofluorescence. It counts as cell-based, human. Conditions: 20 h, NPD compounds 100 μM, TH287 3 and 10 μM. How it is done: as §1, with “CO2. […]” for “CO2.”
The HeLa cells were seeded on glass coverslips in 12-well plates, cultured overnight, and treated with test compounds for the indicated time. For 8-oxo-dG, cells were fixed sequentially in 3.7% formalin for 10 min and methanol at -20 °C for 10 min, and then permeabilized in 0.5% Triton X-100 in PBS at room temperature for 5 min. After blocking with 0.5% BSA in PBS at room temperature for 30 min, cells were incubated sequentially with a primary antibody against 8-oxo-dG (5 µg/mL, MOG-020; Japan Institute for the Control of Aging) and with Alexa Fluor 488-conjugated secondary antibody (1:400, Life Technologies) under the same conditions. After a quick rinse in PBS, DNA was counterstained with 0.1 µg/mL 4′,6-diamidino-2-phenylindole (DAPI) in PBS at room temperature for 10 min. Images were analyzed with a fluorescence microscope (BX60, Olympus).

Where [13] appears, read: substrate 2-OH-dATP (8.3 μM), read-out: IC50 of MTH1 inhibitory activity, 2-OH-dATP.
Where [14] appears, read: substrate 8-oxo-dGTP (13.2 μM), read-out: IC50 of MTH1 inhibitory activity, 8-oxo-dGTP.

T1 sequence (P02550 whole entry): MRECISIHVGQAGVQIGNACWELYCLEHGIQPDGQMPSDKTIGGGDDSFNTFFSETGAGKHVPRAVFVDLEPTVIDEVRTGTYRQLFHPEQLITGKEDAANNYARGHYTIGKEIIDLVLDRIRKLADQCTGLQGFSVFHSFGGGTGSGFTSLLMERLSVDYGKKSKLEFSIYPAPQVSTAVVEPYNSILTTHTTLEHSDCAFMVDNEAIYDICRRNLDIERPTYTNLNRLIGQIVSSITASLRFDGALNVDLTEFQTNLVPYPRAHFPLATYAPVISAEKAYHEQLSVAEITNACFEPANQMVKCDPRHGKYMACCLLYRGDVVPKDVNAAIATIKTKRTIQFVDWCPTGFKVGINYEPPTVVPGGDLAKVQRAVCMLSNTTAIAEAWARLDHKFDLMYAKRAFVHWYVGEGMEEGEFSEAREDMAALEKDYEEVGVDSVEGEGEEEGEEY
T1 sequence (P02554 whole entry): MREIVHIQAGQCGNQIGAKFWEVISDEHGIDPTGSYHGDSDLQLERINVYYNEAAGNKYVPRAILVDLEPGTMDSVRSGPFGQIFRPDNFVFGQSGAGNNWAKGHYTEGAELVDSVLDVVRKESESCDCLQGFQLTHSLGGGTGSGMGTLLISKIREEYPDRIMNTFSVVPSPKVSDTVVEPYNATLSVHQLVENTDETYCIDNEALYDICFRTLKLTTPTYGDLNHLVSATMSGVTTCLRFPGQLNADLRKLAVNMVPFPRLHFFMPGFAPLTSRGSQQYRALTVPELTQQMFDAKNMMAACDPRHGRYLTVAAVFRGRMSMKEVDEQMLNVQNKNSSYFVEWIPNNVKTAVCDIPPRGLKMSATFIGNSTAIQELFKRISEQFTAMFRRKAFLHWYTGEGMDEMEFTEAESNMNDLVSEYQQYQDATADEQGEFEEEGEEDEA

As for `Nc1nc(NC2CC2)cc(-c2cccc(Cl)c2Cl)n1` [TH588], the Bcl-2 phosphorylation result in [1] is “induced Bcl-2 phosphorylation”. Further, the “inhibition of other Nudix family members and nucleoside triphosphate pyrophosphatases” value in data set [2] is “did not inhibit”. At porcine tubulin, the “effect on tubulin polymerization in vitro” value is reported as “inhibited tubulin polymerization”. Moreover, in the data set on HeLa cells [3], the “population of HeLa cells in G2/M phase” value was “increased the population of HeLa cells in G2/M phase”. In [4], the “effect on intracellular microtubule networks” value was “disrupted intracellular microtubule networks”. Also, the “tumor growth in mouse xenograft model” value in data set [5] is “suppressed tumor growth”. Besides, in data set [6], the “effect against 87 enzymes, GPCRs, kinases, ion channels, and transporters” value was “little effect”.
A word on the IC50: it is the concentration at which inhibition is half-maximal. As for `Cn1cnc2c(NCc3ccco3)ncnc21` [NPD8880], the IC50 at 72 h in data set [7] was determined as 650 µM. For the same compound, the half-maximal inhibitory concentration (IC50) in data set [8] (setting [13]) and in [8] (setting [14]) was over 1000 µM in each case. In addition, the “DNA damage (nuclear 53BP1 foci formation)” value in data set [9] is recorded as “induced DNA damage”.
Consider `CC(C)OCCCNc1ncnc2[nH]cnc12` [NPD15095], for which the IC50 in data set [8] (setting [13]) is 6.7 µM; in data set [8] (setting [14]) it was 3.3 µM.
For `C[C@H](Oc1cc(-c2cnn(C3CCNCC3)c2)cnc1N)c1c(Cl)ccc(F)c1Cl` [(S)-crizotinib, reference compound], the IC50 in the data set on HeLa cells [10] (72 h, WST-8, read-out: cytotoxicity IC50 against HeLa cells) was 13 µM. In addition, in data set [11], the “effect on enzymatic activity of DCTPP1” value is on record as “slightly inhibited”.
Regarding `CNc1cc(-c2cccc(Cl)c2Cl)nc(N)n1` [TH287, reference compound], the Bcl-2 phosphorylation entry in data set [1] was “induced Bcl-2 phosphorylation”. In addition, the “inhibition of other Nudix family members and nucleoside triphosphate pyrophosphatases” value in data set [2] was “did not inhibit”. Besides, the IC50 in data set [8] (setting [13]) stood at 0.0036 ± 0.0017 µM; in data set [8] (setting [14]), 0.0022 ± 0.0003 µM. The “effect on tubulin polymerization in vitro” value on porcine tubulin is on record as “inhibited tubulin polymerization”. The “population of HeLa cells in G2/M phase” value in the data set with HeLa cells [3] is “increased the population of HeLa cells in G2/M phase”. In addition, the “effect on intracellular microtubule networks” value in data set [4] was “disrupted intracellular microtubule networks”. In addition, the “accumulation of 8-oxo-dG” value in [12] is “increased 8-oxo-dG levels”.
Consider `COc1ccc2nc3c(c(C)nn3C)c(NCCOCCO)c2c1` [SCH51344, reference compound], for which the figures for the concentration for half-maximal inhibition (IC50) (in the data set with HeLa cells [10]; in data set [8] (setting [13]); in [8] (setting [14])) were 5.5 µM, 0.75 ± 0.4 µM and 0.32 ± 0.04 µM, respectively. Besides, in data set [11], the “effect on enzymatic activity of DCTPP1” value is given as “slightly inhibited”.
